Results taken from publication PMC3928314, “Identification and Characterization of Sebaceous Gland Atrophy-Sparing DGAT1 Inhibitors” (PLoS ONE, 2014).
“And” between values parts separate entries of the source, which are not always exact repeats. Equal values may be shown once. “Also recorded” adds a separate entry of the source. Read-outs that look alike come from different tables or passages of the source.

Experiments:
[1] = Skin compound concentration after 14 days oral dosing; assay type: in vivo, mouse; conditions: DIO mice; for Skin (skin concentration): oral 30 mg/kg or dose indicated (Cpd1 3 mg/kg), 14 days, trough, BLQ = below detection; for Kp: male, C57BL/6, mouse, skin/plasma, 14 days oral dosing, read-out: Skin/Plasma Ratio (skin to plasma concentration ratio)
Protocol: (§1) Experiments were performed in male diet induced obese C57BL/6 mice (Taconic Farms, Germantown, NY) that were fed high-fat diet (D12492: 60% kcal from fat; Research Diets) in a 12 hr light/12 hr dark cycle. Animal protocols used in these studies were approved by the Merck Research Laboratories Institutional Animal Care and Use Committee (Rahway, NJ). Mice were acclimated to nonspecific stress for 7 days before the onset of the chronic dosing studies where they were dosed orally with vehicle (0.5% methylcellulose) or compounds at 30 mg/kg, or at doses indicated, for 14 days.
The skin tissue samples from mice were weighted and placed in 48-well plates (or tubes). […] An aliquot of 100 µL homogenized blank skin tissue samples were transferred to 96-well plates designated for standard curve and QCs. […] An aliquot of 100 µL dosed skin tissue homogenates were transferred to the 96-well plate and a 25 µL aliquot of acetonitrile:water 1∶1 was added into each well containing dosed tissue samples to make the volumes of all samples, stds, and QCs equal. Protein precipitation was used for sample extraction by the addition of 500 µL of acetonitrile crash solution, containing IS. Internal standard used was Alprazolam (Sigma Aldrich) at 100 µM in the crash solution. Samples were vortexed for 30 seconds and then centrifuged at 4000 rpm for 5 min. The supernatant was transferred to a separate plate.
A Thermo Scientific-Cohesive LX-2 system consisting of a CTC Analytics autosampler, Flux Instruments AG pumps, and a valve module, controlled by Aria software was used. A Sciex API-4000 mass spectrometer (Toronto, Canada) was the detector using Analyst 1.4.2 software. The aqueous mobile phase (A) was water with 0.1% formic acid and the organic mobile phase (B) was acetonitrile with 0.1% formic acid. A gradient chromatographic profile was used. […] Then over 90 seconds, the chromatic conditions were ramped to 5% A and 95% B. This was held for 25 seconds when the conditions were changed back to original 95% A and 5% B and held for 50 seconds. […] A turbo ionspray interface was used in positive ion mode for detection of analytes. Multiple reaction monitoring (MRM) was used to measure the analyte response. The peak area ratio of analyte to internal standard for nominal concentrations was used to make a linear regression line with a 1/x2 weighting factor. The line's equation was used to determine the concentration in the unknown samples.

[2] = Plasma compound concentration after 14 days oral dosing; assay type: in vivo, mouse; conditions: DIO mice, oral 30 mg/kg or dose indicated (Cpd1 3 mg/kg), trough
Protocol: as §1
Concentrations of compounds in plasma were determined by LC-MS/MS following protein precipitation. To 100 µL of plasma sample, 20 µL of an acetonitrile solution of the internal standard (2,500 ng/ml), was added. This step was followed by protein precipitation with 300 µL of acetonitrile. Samples expected to contain analyte concentrations exceeding the upper limits of the calibration curves were diluted with control plasma. Sample mixtures were vortex-mixed for 15 minutes. After spinning in a centrifuge for 15 minutes at 1,000× g (at 10°C), the supernatants were transferred by a Tomtec Quadra 96 Model 320 (Hamden, CT) to Empore 96 filter plates (Fisher Scientific, Springfield, NJ), and the resulting filtrates collected. These filtrates were dried at 25°C under a stream of nitrogen gas, on a Zymark TurboVap 96 (Hopkinton, MA). The residues were reconstituted with 100 µL of a 8∶2, v/v, mixture of mobile phases A (20 mM aqueous ammonium acetate containing 0.01% formic acid), and B (80∶20, v/v, acetonitrile:methanol), vortex-mixed, spun in a centrifuge at 1,000× g (at 10°C), then analyzed by LC-MS/MS.
The LC-MS/MS system comprised of a Leap Technologies HTS-PAL autosampler (Carrboro, North Carolina), two Perkin Elmer Series 200 Micro Pumps (Norwalk, CT), an in-line pre-column filter, a Type W 6-port Valco switching valve (Vici, Houston, TX), and a Sciex API 365 mass spectrometer (Toronto, Canada). Chromatographic separation of the analytes was achieved by RP-HPLC.
Data were acquired and processed by Sciex Analyst version 1.1 software. Peak area ratios of analyte to internal standard were plotted as a function of the nominal concentrations of the analyte. A line of best fit was generated from the curve points by linear regression with a weighting factor of 1/x2. The equation of this line was then used to calculate the plasma […] in samples.

[3] = Measured logD by high-throughput HPLC; assay type: physicochemical; conditions: reversed-phase HPLC, Poroshell 120 EC-C18 column; HT HPLC, pH 7.0; read-out: mlogD (measured logD)
Protocol: LogD was measured by high-throughput (HT) HPLC at pH 7.0. The chromatographic system consisted of an Agilent 1200 HPLC system composed of a G1379B degasser, G1312B binary pump, G1367C well-plate autosampler, G1316B thermostatted column compartment, G1315C diode-array UV-vis detector, and ChemStation software, all from Agilent Technologies, USA. The separations were carried out on a Poroshell 120 EC-C18, 30 mm×3.0 mm I.D., 2.7 µm, (Agilent Technologies, USA). The mobile phase consisted of phosphate buffered saline at pH 7 (mobile phase A) and acetonitrile (mobile phase B). The column oven temperature was set to 30°C. The HPLC analysis began with an isocratic step of 0.2 minutes at 5% B at 1.5 ml/min, followed by a gradient from 5% to 98% B in 1.0 minute at 1.5 ml/min. A second isocratic step of 0.2 minutes at 98% B with a changing flow rate from 1.5 to 2.0 ml/min was then followed by a gradient from 98 to 5% B in 0.1 minutes with the flow rate changing from 2.0 to 1.5 ml/min. The equilibration time between injections is 0.2 minutes at 5% B. The injection volume is 5 µL and the spectrophotometric detection was set to 215, 238 and 254 nm.
A 10 mM DMSO stock solution of compound was delivered for analysis. A 100 µM standard solution was generated by diluting 10 µL of the 10 mM stock solution with 990 µL of diluent (10% DMSO/10% MeCN/80% MeOH, v/v/v). The chromatographic system was calibrated with a set of standards with published shake-flask logD values. Linear regression was used to determine the calibration line relating the retention time to logD for the calibration standards. This line was then used to determine the HT HPLC logD7.0 value of compound from the measured retention time by the HPLC/DAD analysis of the 100 µM standard solution.

rats = assay: Longer exposure in rats, skin adverse effects; assay type: in vivo, rat; conditions: up to 300 mg/kg for 4 weeks, data not shown
[4] = tested on: male diet induced obese C57BL/6 mice; assay: Skin histology, sebaceous gland atrophy in DIO mice; assay type: in vivo, mouse; conditions: for Sebaceous gland atrophy in skin, in words (skin-positive / skin-negative): 14 days of treatment; for Sebaceous gland size (area), Geometric Mean: dorsal skin biopsies, Cpd1 3 mg/kg, Cpd2 and Cpd3 30 mg/kg, n 10; for Sebaceous gland size (area), Geometric Mean / Scoring (histological adverse effect score, sebaceous gland atrophy): 14 days; for Scoring (histological adverse effect score, sebaceous gland atrophy): oral 30 mg/kg or dose indicated (Cpd1 3 mg/kg), dorsal skin
Protocol: as §1
Skin samples from DIO mice treated with DGAT1 inhibitors for 14 days were collected from the dorsal and/or ventral surface and immediately fixed in 10% buffered formalin for 24 hr at room temperature and embedded in paraffin. Paraffin specimens were sectioned at 5 µm and stained with hematoxylin and eosin, and were evaluated blindly with light microscopy. […] One slide/location with at least 50 sebaceous glands was used for scoring purposes. Digital images were captured using a 20× objective and the ScanScope XT slide scanner system (Aperio Technologies, Vista, CA) and managed using Spectrum (Aperio). The size of the sebaceous glands were measured using ImageScope of Aperio system by the method previously described.

[5] = Unbound fraction (Fu) in plasma by equilibrium dialysis; assay type: in vitro ADME; conditions: pH 7.4, mouse plasma, equilibrium dialysis 4 hr 37°C
Protocol: Plasma protein binding was determined by equilibrium dialysis with an incubation period of 4 hr at 37°C. The dialysis membrane (10-12K MWCO, HTDialysis, LLC) was hydrated and the dialysis apparatus (HTDialysis, LLC) assembled according to the manufacturer's directions. A 150 µL aliquot of mouse plasma containing compound (5 µM) was added to one side of the dialysis membrane. A 150 µL aliquot of phosphate buffered saline (pH 7.4) was added to the opposite side. The plate was then sealed and placed in a shaking incubator set to maintain a temperature of 37°C and constant shaking rate of 60 rpm for 4 hr. At the end of the incubation period, 50 µL aliquots of plasma and buffer were removed and analyzed by LC-MS/MS. Percent unbound was determined as the amount of compound in buffer (post incubation) divided by amount of compound in plasma (post incubation) x100.

mDGAT1 = biological target: T1, mDGAT1 (Mus musculus, UniProt Q9Z2A7); assay: DGAT1 enzyme assay; assay type: biochemical; conditions: in vitro potency
T1 construct: made in house; host or cells: Pichia (membrane preparations)
T1 sequence (Q9Z2A7 1-498): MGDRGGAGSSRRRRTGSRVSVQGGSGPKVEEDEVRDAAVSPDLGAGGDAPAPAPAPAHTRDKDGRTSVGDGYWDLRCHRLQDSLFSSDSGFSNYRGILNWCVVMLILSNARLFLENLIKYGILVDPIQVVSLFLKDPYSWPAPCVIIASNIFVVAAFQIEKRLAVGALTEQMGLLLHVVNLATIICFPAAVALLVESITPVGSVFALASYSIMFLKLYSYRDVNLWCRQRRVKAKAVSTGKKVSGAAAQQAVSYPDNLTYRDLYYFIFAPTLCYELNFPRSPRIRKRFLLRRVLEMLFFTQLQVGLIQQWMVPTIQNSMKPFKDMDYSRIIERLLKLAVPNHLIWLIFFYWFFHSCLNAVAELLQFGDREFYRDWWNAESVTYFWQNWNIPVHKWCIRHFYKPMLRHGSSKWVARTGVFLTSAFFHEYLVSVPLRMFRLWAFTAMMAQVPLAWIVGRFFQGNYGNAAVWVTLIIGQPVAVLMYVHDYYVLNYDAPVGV

Skin (skin concentration) [1] | Kp [1] | Plasma (plasma concentration) [2] | chromatographic logD [3] | Sebaceous gland size (area), Geometric Mean [4] | Kp ([1]; po) | fraction unbound at 4 h, 5 µM [5] | IC50 (mDGAT1) | IC50 (mDGAT1; same values in µM) | Compound | Adverse effects in skin (rats) | Sebaceous gland atrophy in skin, in words (skin-positive / skin-negative) [4] | Scoring (histological adverse effect score, sebaceous gland atrophy) [4]
0.0621 µM | 0.32 | 0.194 µM | 0.35 | 1805 | – | – | – | – | Nc1ncnc2c1C(=O)N(c1ccc([C@H]3CC[C@H](CC(=O)O)CC3)cc1)CCO2 [Cpd1] | no adverse effects in skin | lack of skin AEs; also recorded: appeared normal; also recorded: Skin-Negative | not remarkable
2.16 µM and 1.94 µM and 2.25 µM | – | 0.124 µM and 0.106 µM and 0.163 µM | 4.04 | 880 | 17.5 | 0.01 | – | – | CC(C)(C)OC(=O)NC1(C(=O)N[C@@H]2CC(=O)c3ccccc3N(Cc3cc(C(F)(F)F)cc(C(F)(F)F)c3)C2=O)CC1 [Cpd2] | – | induce either “minimal to mild” or “moderate to marked” skin sebaceous gland atrophy; also recorded: Skin-Positive | moderate to marked
0.135 µM | 0.098 | 1.38 µM | 1.73 | 1562 | – | 0.063 | 0.011 µM | 0.011 µM | O=C(Nc1ccc([C@H]2CC[C@H](C(=O)O)CC2)cc1F)c1nnc(Nc2ccc(F)c(F)c2)o1 [Cpd3] | – | induce either “minimal to mild” or “moderate to marked” skin sebaceous gland atrophy | minimal to mild
BLQ | – | 51.4 µM | 2.15 | – | – | 0.112 | – | – | CC(C)(O)C[C@H]1CC[C@H](c2ccc(N3CCOc4ncnc(N)c4C3=O)cc2)CC1 [Cpd22] | – | induce either “minimal to mild” or “moderate to marked” skin sebaceous gland atrophy | moderate to marked
